Results on seven compounds are retold here after publication PMC12673082 (Nature Communications, 2025).

Residue numbers refer to the chain shown, from its start. Where only a bound is given, the exact number is not on record here.

Experiment [1] concerns human P2X7. The conditions noted are these: cited from earlier work.
A further experiment addresses T1, mP2X7 (Mus musculus, UniProt Q9Z1M0).
T1 sequence (Q9Z1M0 1-595): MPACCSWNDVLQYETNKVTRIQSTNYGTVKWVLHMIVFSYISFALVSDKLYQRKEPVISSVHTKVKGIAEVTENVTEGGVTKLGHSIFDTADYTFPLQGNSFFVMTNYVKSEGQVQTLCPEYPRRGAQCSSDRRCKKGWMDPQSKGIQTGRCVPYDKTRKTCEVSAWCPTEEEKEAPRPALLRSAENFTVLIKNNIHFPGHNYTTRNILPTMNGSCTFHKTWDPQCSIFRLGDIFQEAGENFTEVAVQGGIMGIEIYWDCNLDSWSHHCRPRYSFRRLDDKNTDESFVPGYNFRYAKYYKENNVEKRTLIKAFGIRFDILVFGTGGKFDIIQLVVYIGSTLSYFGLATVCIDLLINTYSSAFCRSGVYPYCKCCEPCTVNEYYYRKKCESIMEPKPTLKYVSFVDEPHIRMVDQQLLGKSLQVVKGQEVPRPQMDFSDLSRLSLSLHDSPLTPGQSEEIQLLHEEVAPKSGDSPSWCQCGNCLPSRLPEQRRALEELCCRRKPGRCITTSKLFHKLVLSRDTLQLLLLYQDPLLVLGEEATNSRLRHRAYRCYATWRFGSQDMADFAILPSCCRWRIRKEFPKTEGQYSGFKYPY
In words: Whole-cell patch clamp, ATP-evoked current, transfected HEK293. It is filed as cell-based. (In patch-clamp work, channel activity is measured electrically.)

A further experiment has as its target T2, mP2X7 A312V (Mus musculus, UniProt Q9Z1M0, A312V).
T2 sequence (Q9Z1M0 1-595 A312V): T1 sequence (Q9Z1M0 1-595) with A312V
The experiment can be described thus: Whole-cell patch clamp, mP2X7 mutant. The conditions noted are these: read-out: EC50 (apparent affinity for ATP); m7A312V. Format: cell-based.

The target of the next experiment is hP2X7 E305C (Homo sapiens, UniProt Q99572, E305C). The experiment can be described thus: Whole-cell patch clamp, hP2X7 mutant. It is filed as cell-based. The settings on record: h7E305C, 30 μM (Fig. S3b).
A further experiment has as its target T3, hP2X7 (Homo sapiens, UniProt Q99572).
T3 sequence (Q99572 1-595): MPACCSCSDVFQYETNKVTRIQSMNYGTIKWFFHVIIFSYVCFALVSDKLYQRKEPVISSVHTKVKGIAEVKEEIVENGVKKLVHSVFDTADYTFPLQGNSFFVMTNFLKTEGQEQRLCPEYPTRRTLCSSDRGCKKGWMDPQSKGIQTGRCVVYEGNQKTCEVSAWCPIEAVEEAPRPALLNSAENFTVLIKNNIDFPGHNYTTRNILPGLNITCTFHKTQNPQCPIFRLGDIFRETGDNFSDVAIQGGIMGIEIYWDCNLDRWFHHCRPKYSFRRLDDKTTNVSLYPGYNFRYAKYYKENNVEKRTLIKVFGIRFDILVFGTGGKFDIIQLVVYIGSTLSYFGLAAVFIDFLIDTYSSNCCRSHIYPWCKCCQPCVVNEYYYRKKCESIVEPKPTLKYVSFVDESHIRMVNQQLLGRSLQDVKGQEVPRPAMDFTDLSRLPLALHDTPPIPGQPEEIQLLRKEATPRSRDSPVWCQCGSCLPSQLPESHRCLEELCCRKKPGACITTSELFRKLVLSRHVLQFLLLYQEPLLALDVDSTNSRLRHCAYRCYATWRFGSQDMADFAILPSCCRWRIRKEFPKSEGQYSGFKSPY
The experiment can be described thus: Whole-cell patch clamp, ATP-evoked current, transfected HEK293. It is filed as cell-based.

In another experiment the target is hP2X7 F103A (Homo sapiens, UniProt Q99572, F103A). The experiment can be described thus: Whole-cell patch clamp, hP2X7 mutant. The settings on record: h7F103A, 30 μM (Fig. S3b). Format: cell-based.
The target of another experiment is hP2X7 Y295F (Homo sapiens, UniProt Q99572, Y295F). The experiment can be described thus: Whole-cell patch clamp, hP2X7 mutant. Format: cell-based.
The next experiment concerns the target hP2X7 F88A (Homo sapiens, UniProt Q99572, F88A). The experiment can be described thus: Whole-cell patch clamp, hP2X7 mutant. The settings on record: h7F88A, 30 μM (Fig. S3b). Format: cell-based.
The next experiment has as its target hP2X7 V312A (Homo sapiens, UniProt Q99572, V312A). In words: Whole-cell patch clamp, hP2X7 mutant. It is filed as cell-based.
A further experiment addresses hP2X7 E305F (Homo sapiens, UniProt Q99572, E305F). In words: Whole-cell patch clamp, hP2X7 mutant. Format: cell-based.
For another experiment, the target named is hP2X7 I68F (Homo sapiens, UniProt Q99572, I68F). The experiment can be described thus: Whole-cell patch clamp, hP2X7 mutant. It is filed as cell-based.
A further experiment deals with T4, rP2X7 (Rattus norvegicus, UniProt Q64663).
T4 sequence (Q64663 1-595): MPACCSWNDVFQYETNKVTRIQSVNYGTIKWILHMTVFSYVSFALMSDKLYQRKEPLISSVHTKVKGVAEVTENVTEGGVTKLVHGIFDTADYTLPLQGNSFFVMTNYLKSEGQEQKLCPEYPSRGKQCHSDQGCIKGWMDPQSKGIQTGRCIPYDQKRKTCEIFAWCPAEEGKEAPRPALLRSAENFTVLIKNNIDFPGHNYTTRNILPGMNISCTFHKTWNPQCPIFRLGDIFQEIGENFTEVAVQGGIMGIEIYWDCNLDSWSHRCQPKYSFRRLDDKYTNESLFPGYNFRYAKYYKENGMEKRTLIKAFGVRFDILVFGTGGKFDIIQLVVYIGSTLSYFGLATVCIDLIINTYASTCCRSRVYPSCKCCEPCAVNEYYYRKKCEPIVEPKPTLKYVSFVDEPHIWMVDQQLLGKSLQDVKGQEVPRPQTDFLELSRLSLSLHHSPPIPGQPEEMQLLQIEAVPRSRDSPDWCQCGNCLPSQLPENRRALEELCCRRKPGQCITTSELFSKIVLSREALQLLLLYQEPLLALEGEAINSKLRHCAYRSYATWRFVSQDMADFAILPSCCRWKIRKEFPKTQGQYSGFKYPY
The experiment can be described thus: Whole-cell patch clamp, ATP-evoked current, transfected HEK293. It is filed as cell-based. The settings on record: HEK293, read-out: inhibition rate.

A further experiment deals with hP2X7 M140E (Homo sapiens, UniProt Q99572, M140E). The experiment can be described thus: Whole-cell patch clamp, hP2X7 mutant. It is filed as cell-based. The conditions noted are these: h7M140E, 30 μM (Fig. S3b).
The subject of another experiment is human P2X3. The settings on record: read-out: IC50 (half-maximal inhibitory concentration); hP2X3; cited from earlier work.
Experiment [2] deals with human P2X7. The experiment can be described thus: Literature IC50. The settings on record: from Table S1 values.
A further experiment has as its system human P2X4. The conditions noted are these: cited from earlier work.
Setting [3] is: HEK293, read-out: inhibition rate.

The term EC50 denotes the concentration needed to bring the measured effect to its halfway point. Broadly, the inhibition is the share of the control response that was lost under treatment.

hP2X7 V312A, sequence (Q99572 whole entry V312A): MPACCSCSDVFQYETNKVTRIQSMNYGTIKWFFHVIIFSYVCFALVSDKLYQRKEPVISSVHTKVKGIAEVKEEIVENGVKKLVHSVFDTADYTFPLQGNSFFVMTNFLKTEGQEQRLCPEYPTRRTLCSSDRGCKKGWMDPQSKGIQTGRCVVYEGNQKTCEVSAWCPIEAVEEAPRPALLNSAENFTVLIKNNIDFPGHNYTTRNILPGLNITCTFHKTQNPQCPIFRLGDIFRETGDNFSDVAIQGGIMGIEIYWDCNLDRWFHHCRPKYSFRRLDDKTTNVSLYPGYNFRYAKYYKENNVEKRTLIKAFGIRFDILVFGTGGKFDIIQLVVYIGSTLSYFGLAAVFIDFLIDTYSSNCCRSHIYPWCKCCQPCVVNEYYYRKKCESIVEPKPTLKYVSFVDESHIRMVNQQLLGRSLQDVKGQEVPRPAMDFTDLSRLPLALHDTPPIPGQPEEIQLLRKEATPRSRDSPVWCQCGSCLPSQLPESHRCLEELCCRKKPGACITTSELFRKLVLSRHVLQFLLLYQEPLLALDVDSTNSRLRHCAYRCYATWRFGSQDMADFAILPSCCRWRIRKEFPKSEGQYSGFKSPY
hP2X7 Y295F, sequence (Q99572 whole entry Y295F): as the sequence (Q99572 whole entry V312A) above, with Y295F, A312V counted along it
hP2X7 I68F, sequence (Q99572 whole entry I68F): as the sequence (Q99572 whole entry V312A) above, with I68F, A312V counted along it
hP2X7 E305F, sequence (Q99572 whole entry E305F): as the sequence (Q99572 whole entry V312A) above, with E305F, A312V counted along it
hP2X7 F103A, sequence (Q99572 whole entry F103A): as the sequence (Q99572 whole entry V312A) above, with F103A, A312V counted along it
hP2X7 M140E, sequence (Q99572 whole entry M140E): as the sequence (Q99572 whole entry V312A) above, with M140E, A312V counted along it
hP2X7 E305C, sequence (Q99572 whole entry E305C): as the sequence (Q99572 whole entry V312A) above, with E305C, A312V counted along it
hP2X7 F88A, sequence (Q99572 whole entry F88A): as the sequence (Q99572 whole entry V312A) above, with F88A, A312V counted along it

For `COc1ccc(CC(=O)NC(NC(=NC#N)Nc2cccc3ncccc23)C(C)(C)C)cc1OC` (centres unmarked) [A740003, N-(1-{[(cyanoimino)(5-quinolinylamino)methyl]amino}-2,2-dimethylpropyl)-2-(3,4-dimethoxyphenyl)acetamide], the IC50 in the experiment with human P2X7 [1] (P2X7) is 0.0437 µM. Also, in the experiment with human P2X7 [1], the “fold difference in IC50 between hP2X7 and mP2X7” value is 37 fold.

For the compound `Nc1ncnc2c1ncn2[C@@H]1O[C@H](COP(=O)(O)OP(=O)(O)OP(=O)(O)O)[C@@H](O)[C@H]1O` [ATP, reference compound], the EC50 at mP2X7 (read-out: EC50 (apparent affinity for ATP), m7WT) was 782 ± 71 µM; at mP2X7 A312V, 1420 ± 170 µM.

With `COc1ccc2cc3[n+](cc2c1OC)CCc1cc2c(cc1-3)OCO2` [berberine], the “inhibitory effect vs h7WT” value is given as “notably attenuated” against hP2X7 E305C; “notably attenuated” at hP2X7 F103A; “notably attenuated” on hP2X7 Y295F (h7Y295F, 30 μM (Fig. S3b)); “notably attenuated” against hP2X7 F88A; “notably attenuated” at hP2X7 V312A (h7V312A, 30 μM (Fig. S3b)); “notably attenuated” against hP2X7 E305F (h7E305F, 30 μM (Fig. S3b)). Further, the “inhibitory effect vs h7WT” value at hP2X7 I68F (h7I68F, 30 μM (Fig. S3b)) is “notably attenuated”; against hP2X7 M140E, “notably attenuated”. The IC50 was 12.7 ± 0.9 µM on hP2X7; 46.6 ± 7.8 µM at hP2X7 Y295F; above 300 µM against hP2X7 V312A; 87.7 ± 4.3 µM against hP2X7 E305F; 39.9 ± 5.8 µM at hP2X7 I68F. Further, the figures for the inhibition at 300 µM at mP2X7 (setting [3]) and at rP2X7 were 8.02 ± 2.7% and 19.2 ± 4.3%, respectively.

As for `C=CC[C@H]1c2ccc(OC)c(OC)c2CN2CCc3cc4c(cc3[C@@H]12)OCO4` [PSFL1190, (13S,13aR)-13-allyl-9,10-dimethoxy-5,8,13,13a-tetrahydro-6H-1,3dioxolo[4,5-g] isoquinolino[3,2-a]isoquinoline], at hP2X7, the IC50 was determined as 12.6 ± 2.9 µM; the “fold difference in affinity for hP2X7 between PSFL1191 and PSFL1190” value is listed as “more than 50 fold”. Further, the inhibition at 30 µM at mP2X7 (setting [3]) was 11.8 ± 6.1%. Further, the inhibition at 30 µM at rP2X7 turned out to be 12.1 ± 2.4%.

Consider `CNC(=O)c1cc(F)c(-c2nc3cc(C)ccn3c2C[C@H]2CN(C(=O)OC)CCO2)c(F)c1` [BLU-5937], for which, in the experiment on human P2X3, the IC50 is 0.025 µM.

For `O=C(CC12CC3CC(CC(C3)C1)C2)Nc1cccc2nc(NCCNCCO)ccc12` [AZ10606120], in the experiment with human P2X7 [2], the “apparent affinity (IC50) for hP2X7, fold higher than for mP2X7” value is 500 fold and the “apparent affinity (IC50) for hP2X7, fold higher than for rP2X7” value is 1587 fold.

Take `CC(C)c1cc(Br)c(NC(=O)Nc2cccnc2)c(Br)c1` [BX430]: the IC50 in the experiment with human P2X4 (P2X4) was 0.54 µM. For the same compound, in the experiment on human P2X4, the “IC50 for hP2X4, fold lower than for mP2X4 and rP2X4” value is “more than 20 fold”; the “fold difference between hP2X4 and mP2X4” value is given as above 20 fold.
